Among the data in patent US9034906B2, “EP4 agonist” (Asahi Glass Company, Limited, priority 2008, dated 2015) are Ki and IC50 values, retold here.

Structures are written as SMILES.

The target of one assay is T1, human EP1 (Homo sapiens, UniProt P34995).
T1 construct: expressed in transfected cells; host or cells: COS-7 (membranes)
T1 sequence (P34995 1-402): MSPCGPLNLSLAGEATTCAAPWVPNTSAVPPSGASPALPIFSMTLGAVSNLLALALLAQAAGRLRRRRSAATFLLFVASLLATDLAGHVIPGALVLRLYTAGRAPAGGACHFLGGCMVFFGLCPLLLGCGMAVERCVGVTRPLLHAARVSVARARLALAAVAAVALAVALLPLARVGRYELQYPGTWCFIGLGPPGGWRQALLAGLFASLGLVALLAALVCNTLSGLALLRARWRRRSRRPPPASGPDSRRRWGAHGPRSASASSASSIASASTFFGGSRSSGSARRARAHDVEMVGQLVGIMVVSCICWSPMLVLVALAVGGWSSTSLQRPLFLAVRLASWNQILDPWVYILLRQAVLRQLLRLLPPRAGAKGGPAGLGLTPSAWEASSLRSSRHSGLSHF
The assay is described as follows: Receptor affinity, tritium-labeled PGE2 binding to membranes of transfected COS-7 cells. As to conditions: COS-7 cell membranes. The protocol:
PG receptor affinity of compound F and compound J of the present invention was evaluated. Compound F used was one synthesized in Example 9, and compound J was prepared by separating and purifying the compound synthesized in Example 14 with a column (the same preparations were used in the following Examples). COS-7 cells were transfected with the genes of mouse EP4, human EP1-4 or human IP to overexpress the receptor and then the cell membranes were collected. As a labeled ligand, tritium-labeled PGE2 was used for EPs; tritium-labeled iloprost, for IP. The dissociation constant Kd value was obtained and inhibition constant Ki value of each test compound was determined in a conventional method. As a reference control, PGE2 was used for EPs; beraprost sodium (BPS), for IP.

The subject of a further assay is IL-2. In words: Suppression of IL-2 production by anti-CD3/anti-CD28 stimulated CD4 positive T cells. It is filed as cell-based. As to conditions: human CD4 positive T cells, anti-CD3 and anti-CD28 antibody, 24 hr, ELISA; geometric mean of three volunteers. The protocol: Using human peripheral blood, an anti-inflammatory effect of compounds F and J in vitro was studied. Blood was collected from 3 healthy volunteers, and CD4 positive T cells were prepared. Anti-CD3 antibody and anti-CD28 antibody were added, and 24 hr later the amounts of IL-2 and TNFα released in the medium were measured by ELISA. […] The amount of IP-10 released into the medium for 48 hr was measured with ELISA. In both cases, the test compound was added 30 min before stimulation.
Each value is a geometric mean of three volunteers.
On the technique in general: In an ELISA, binding on a coated surface is turned into a signal by an enzyme label.

The term Ki denotes a dissociation constant, usually derived from enzyme kinetics or from competition with a known ligand. The low end stands for a stronger hold on the target, the high end for a looser hold on the target. In general, IC50 refers to the point on the concentration scale where inhibition reaches its midpoint. Higher therefore signals weaker potency in that assay.

At human EP1, `CCCCC[C@H](O)/C=C/[C@H]1[C@H](O)CC(=O)[C@@H]1C/C=C\CCCC(=O)O` [PGE2] displayed a Ki of 2.9 nM. The compound further came in with an IC50 in the assay on IL-2 of 0.062 nM.
